Test results published in patent US20200399222A1, “PICOLINAMIDES AS FUNGICIDES” (Dow AgroSciences LLC, priority 2018, published 2020).
Read-outs that look alike come from different tables or passages of the source.

How the values were obtained:
Type in all cases: in vivo
Zymoseptoria tritici = assay: Leaf blotch of wheat (SEPTTR) disease control on wheat seedlings; conditions: for pest or weed control at 121.5 g/ha: Low volume application; for pest or weed control at 100 ppm: High volume application
Puccinia triticina = assay: Wheat brown rust (PUCCRT) disease control on wheat seedlings; conditions: for pest or weed control at 121.5 g/ha: Low volume application; for pest or weed control at 100 ppm: High volume application
Method in brief: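 Yuma wheat seedlings (first leaf emerged) sprayed to run-off with compound in acetone plus nine volumes water containing 110 ppm Triton X-100, or track-sprayed as EC formulations with 0.1% Trycol 5941. Rust spores inoculated before or after treatment; overnight dark dew, 22 °C, 100% RH, then greenhouse at 24 °C.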

Phakopsora pachyrhizi = assay: Asian soybean rust (PHAKPA) disease control on soybean seedlings; conditions: Phakopsora pachyrhizi, High volume application at 25 ppm
Method in brief: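 Compounds in acetone diluted with nine volumes of water containing 0.011% Tween 20, sprayed to run-off on two-week-old Williams 82 soybean seedlings; inoculation 3 days before or 1 day after treatment. Plants held 24 h in dark dew room at 22° C, 100% RH, then at 23° C; disease severity scored on sprayed leaves.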

Rhyncosporium secalis = assay: Barley scald (RHYNSE) disease control on barley seedlings; conditions: 1DP test at 100 ppm
Description: Technical grades of materials were dissolved in acetone, which were then mixed with nine volumes of water containing 110 ppm Triton X-100. The fungicide solutions were applied onto wheat seedlings using an automated booth sprayer to run-off. All sprayed plants were allowed to air dry prior to further handling. All fungicides were evaluated using the aforementioned method for their activity vs. all target diseases, unless stated otherwise. Wheat leaf blotch and brown rust activity were also evaluated using track spray applications, in which case the fungicides were formulated as EC formulations, containing 0.1% Trycol 5941 in the spray solutions. Example J: Evaluation of Fungicidal Activity: Barley Scald (Rhyncosporium secalis; Bayer Code […]) Barley seedlings (variety Harrington) were propagated in soil-less Metro mix, with each pot having 8 to 12 plants, and used in the test when first leaf was fully emerged. Test plants were inoculated by an aqueous spore suspension of Rhyncosporium secalis 24 hr after fungicide treatments. After inoculation the plants were kept in a dew room at 20° C. with 100% relative humidity for 48 hr. The plants were then transferred to a greenhouse set at 20° C. for disease to develop. Fungicide formulation, application and disease assessment on the sprayed leaves followed the procedures as described in the Example A.

[1] = 24 h, 1 Day Protectant, read-out: SEPTTR disease control rating, 1DP
[2] = 72 h, 3 Day Curative, read-out: SEPTTR disease control rating, 3DC
[3] = 24 h, 1 Day Protectant, read-out: PUCCRT disease control rating, 1DP
[4] = 72 h, 3 Day Curative, read-out: PUCCRT disease control rating, 3DC
[5] = 24 h, 1 day protectant, read-out: PHAKPA 1DP (1 Day Protectant) disease control
[6] = 72 h, 3 day curative, read-out: PHAKPA 3DC (3 Day Curative) disease control

Structure (SMILES) | pest or weed control at 121.5 g/ha (Zymoseptoria tritici; [1]) [%] | pest or weed control at 121.5 g/ha (Zymoseptoria tritici; [2]) [%] | pest or weed control at 121.5 g/ha (Puccinia triticina; [3]) [%] | pest or weed control at 121.5 g/ha (Puccinia triticina; [4]) [%] | pest or weed control at 25 ppm (Phakopsora pachyrhizi; [5]) [%] | pest or weed control at 25 ppm (Phakopsora pachyrhizi; [6]) [%] | RHYNSE disease control rating (Rhyncosporium secalis) | pest or weed control at 100 ppm (Zymoseptoria tritici; [1]) [%] | pest or weed control at 100 ppm (Zymoseptoria tritici; [2]) [%] | pest or weed control at 100 ppm (Puccinia triticina; [3]) [%] | pest or weed control at 100 ppm (Puccinia triticina; [4]) [%]
COc1ccnc(C(=O)N[C@@H](C)C(=O)O[C@H](C)[C@H](C)c2ccccc2C)c1OC(C)=O [Example 263] | < 80 | < 80 | < 80 | < 80 | > 80 | < 80 | B (≤80) |  |  |  | 
COc1ccnc(C(=O)N[C@@H](C)C(=O)O[C@H](C)[C@H](C)c2c(C)cc(F)cc2C)c1OC(=O)C(C)C [Example 242] | > 80 | > 80 | > 80 | < 80 | > 80 | > 80 |  |  |  |  | 
COc1ccnc(C(=O)N[C@@H](C)C(=O)O[C@@H](C)[C@@H](C)c2ccccc2C)c1OC(=O)C(C)C [Example 266] | < 80 | < 80 | < 80 | < 80 | > 80 | > 80 |  |  |  |  | 
COc1ccnc(C(=O)N[C@@H](C)C(=O)O[C@@H](C)[C@@H](C)c2ccc(C)s2)c1OC(C)=O [Example 259] | < 80 | < 0 | < 80 | < 0 | < 80 | < 80 |  | < 80 | < 0 | > 80 | > 80
COc1ccnc(C(=S)N[C@@H](C)C(=O)O[C@@H](C)[C@@H](C)c2ccc(F)cc2C(F)(F)F)c1OC(C)=O [Example 271] | < 80 | < 80 | < 80 | < 80 | > 80 | > 80 |  |  |  |  | 
COc1ccnc(C(=O)N[C@@H](C)C(=O)O[C@@H](C)[C@@H](C)c2ccccc2C(F)(F)F)c1O [Example 158] |  |  |  |  |  | < 80 |  | > 80 | < 80 | > 80 | > 80
COc1ccnc(C(=O)N[C@@H](C)C(=O)O[C@@H](C)[C@@H](C)c2ccccc2C(F)(F)F)c1OC(C)=O [Example 245] | > 80 | > 80 | > 80 | < 80 | > 80 | > 80 |  |  |  |  | 
COc1ccnc(C(=O)N[C@@H](C)C(=O)O[C@@H](C)[C@H](C)c2ccccc2C)c1OCOC(C)=O [Example 231] | < 80 | < 80 | > 80 | < 80 | < 80 | < 0 |  |  |  |  | 
COc1ccnc(C(=O)N[C@@H](C)C(=O)O[C@H](C)[C@H](C)c2ccc(C)cc2C)c1OC(=O)C(C)C [Example 180] | < 80 | < 80 | < 80 | < 80 | > 80 | < 80 |  |  |  |  | 
COc1ccnc(C(=O)N[C@@H](C)C(=O)OC(C)C(C)c2c(C)cc(F)cc2C)c1OC(C)=O (stereo partly shown) [Example 256] | > 80 | > 80 | > 80 | > 80 | > 80 | > 80 |  |  |  |  | 
COc1ccnc(C(=O)N[C@@H](C)C(=O)OC(C)C(C)c2c(C)cccc2C)c1OC(=O)C(C)C (stereo partly shown) [Example 243] | < 80 | < 80 | < 80 | < 80 | > 80 | > 80 |  |  |  |  | 
COc1ccnc(C(=O)N[C@@H](C)C(=O)O[C@@H](C)[C@@H](C)c2ccccc2C)c1O [Example 175] |  |  |  |  | > 80 | > 80 |  | < 80 | < 80 | > 80 | > 80
COc1ccnc(C(=O)N[C@@H](C)C(=O)O[C@@H](C)[C@@H](C)c2c(C)cc(F)cc2C)c1OC(=O)C(C)C [Example 238] | > 80 | > 80 | > 80 | < 80 | > 80 | > 80 |  |  |  |  | 
COc1ccnc(C(=O)N[C@@H](C)C(=O)O[C@H](C)[C@H](C)c2ccccc2C)c1OC(=O)C(C)C [Example 265] | < 80 | < 80 | < 80 | < 80 | > 80 | > 80 |  |  |  |  | 
COc1ccnc(C(=O)N[C@@H](C)C(=O)O[C@H](C)[C@H](C)c2ccc(F)cc2)c1OCOC(C)=O [Example 232] | < 0 | < 80 | > 80 | < 80 | < 80 | < 0 |  |  |  |  | 
